In patent US5801149A, “Inhibition of signal transduction molecules” (Joslin D-abetes Center, Inc., priority 1995, dated 1998):
Non-standard residues stand in square brackets, D forms with d. Residues, ends and D or L forms follow the SMILES beside them. No end group written: not given here. Pmp = N[C@@H](Cc1ccc(CP(=O)(O)O)cc1)C(=O)O; pY = N[C@@H](Cc1ccc(OP(=O)(O)O)cc1)C(=O)O

What was measured:
SH2 domain of Src = SH2 domain of Src (Homo sapiens, UniProt P12931)
From the text: (§1) In these experiments, one or both hydrogen atoms were replaced on Pmp at the carbon position between the phenyl ring and the phosphonate.

[1] = target: T1, association between pp60^c-grc /mT and PI 3-kinase (Mus musculus, UniProt P26450); assay: Inhibition of in vitro association of cytosolic PI 3-kinase activity (Balb/3T3 lysate) with immunopurified pp60^c-grc /mT; assay type: biochemical; conditions: absence of sodium vanadate (active PTPases); peptide at about ID50
T1 construct: endogenous in cells; host or cells: Balb/3T3 cells (PI 3-kinase); pp60c-src/mT from baculovirus-infected Sf9 cells
T1 sequence (P26450 whole entry): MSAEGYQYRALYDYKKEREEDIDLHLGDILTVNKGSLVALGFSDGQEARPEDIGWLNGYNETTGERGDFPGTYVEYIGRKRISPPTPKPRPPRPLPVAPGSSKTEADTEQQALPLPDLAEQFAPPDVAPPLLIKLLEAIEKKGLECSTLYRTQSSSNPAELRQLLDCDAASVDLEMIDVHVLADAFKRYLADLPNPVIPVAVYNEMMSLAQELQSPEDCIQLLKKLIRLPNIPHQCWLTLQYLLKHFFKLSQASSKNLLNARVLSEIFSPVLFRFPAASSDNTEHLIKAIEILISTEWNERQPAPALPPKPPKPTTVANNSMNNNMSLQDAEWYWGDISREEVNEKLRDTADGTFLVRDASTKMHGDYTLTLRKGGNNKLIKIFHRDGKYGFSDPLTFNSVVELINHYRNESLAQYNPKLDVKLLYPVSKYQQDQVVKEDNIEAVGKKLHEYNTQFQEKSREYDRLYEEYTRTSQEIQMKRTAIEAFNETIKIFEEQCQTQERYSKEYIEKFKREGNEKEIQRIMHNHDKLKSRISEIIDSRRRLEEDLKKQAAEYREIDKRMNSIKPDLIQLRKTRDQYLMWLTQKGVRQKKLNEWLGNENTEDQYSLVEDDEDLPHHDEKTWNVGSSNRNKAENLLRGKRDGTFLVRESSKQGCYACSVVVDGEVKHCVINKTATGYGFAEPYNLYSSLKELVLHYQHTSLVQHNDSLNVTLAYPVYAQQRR
From the text: Inhibition of the in vitro Association of PI 3-Kinase Activity With Immunopurified pp60^c-grc /mT. Baculovirus-expressed pp60^c-grc /mT complex was immunopurified from infection Sf9 insect cell (Piwnica-Worms et al., 1990, J. Virol. 64:61-68) lysates as described (Auger et al., 1990, 1992, J. BioL Chem. 267:5408-5415). PI 3-kinase activity was obtained directly from crude Balb/3T3 cell lysates as follows. After washing confluent 10 cm dishes with phosphate-buffered saline, Balb/3T3 cells were treated with lysis buffer (137 mM NaCI, 20 mM Hepes, 1 mM MgCl2, 1 mM CaCl2, 10% glycerol, 1% Nonidet P-40, and 1 μg/ml each of leupeptin, pepstatin A and aprotinin, pH 7.25) in the presence or absence of 0.15 mM sodium vanadate. Following a 10 min incubation with lysis buffer, cells were scrape-harvested and particulate debris was removed from the lysates by centrifugation at 12,000×g for 5 min. at 4° C. Varying concentrations of peptides were added directly to the lysates and incubated at 4° C. for 30 min.
Lysate-peptide mixtures were combined with protein A-Sepharose beads containing immunoprecipitated pp60^c-grc /mT complexes. After washing, the beads were used to catalyze phosphatidylinositol phosphorylation as described (Whitman et al., 1985, Nature 315:239-242; Auger et al., 1989, Cell 57:167-175, 1990, Methods in Inositide Res. pp. 159-166). […]

[2] = target: T2, p85 SH2 domains (SH2/GST fusion protein) (Homo sapiens, UniProt P27986); assay: Biospecific interaction analysis of binding to p85 SH2 domains; conditions: steady-state extrapolation, Scatchard-like analysis
T2 construct: GST
T2 sequence (P27986 333-428 limits assumed): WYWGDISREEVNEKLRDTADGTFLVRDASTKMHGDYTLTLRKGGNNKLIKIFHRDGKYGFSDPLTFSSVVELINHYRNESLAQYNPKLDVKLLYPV
Procedure: Therefore, mT-pY315 binding to p85 SH2 domains was analyzed using biospecific interaction analysis as previously described to obtain a more accurate estimate for KD. Series of data were obtained during real-time binding experiments with different concentrations of SH2/GST fusion protein (data not shown).

Rat PTPase 1B = target: T3, Rat PTPase 1B (Rattus norvegicus, UniProt P20417); assay: PTPase 1B peptide dephosphorylation (Km) and inhibition (Ki); assay type: biochemical
T3 construct: cloning the full-length cDNA into the bacterial expression vector, PKK233-2; made in house; host or cells: bacteria (vector PKK233-2)
T3 sequence (P20417 1-432): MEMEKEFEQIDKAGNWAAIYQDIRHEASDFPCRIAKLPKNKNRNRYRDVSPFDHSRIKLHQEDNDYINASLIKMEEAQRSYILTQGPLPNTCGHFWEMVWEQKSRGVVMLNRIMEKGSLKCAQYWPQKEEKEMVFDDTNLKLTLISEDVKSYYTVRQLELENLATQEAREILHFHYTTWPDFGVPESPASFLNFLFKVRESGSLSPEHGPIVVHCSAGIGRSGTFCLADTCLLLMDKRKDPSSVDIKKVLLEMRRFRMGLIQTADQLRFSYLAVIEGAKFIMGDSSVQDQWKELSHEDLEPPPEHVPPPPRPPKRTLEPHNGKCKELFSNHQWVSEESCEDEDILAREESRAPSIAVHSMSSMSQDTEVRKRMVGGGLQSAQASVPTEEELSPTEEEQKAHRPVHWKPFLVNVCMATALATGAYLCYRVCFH
Procedure: The phosphopeptides were used as substrates of PTPase 1B, a single catalytic domain PTPase with a […] tissue distribution (Hunter et al., 1989, cell 58:1013). Rat PTPase 1B (Guan et al., 1990, Proc. Natl., Acad. Sci. USA 87:1501) was obtained by PCR and cloning the full-length cDNA into the bacterial expression vector, PKK233-2.
Sequence specificity for peptide dephosphorylation was observed, with apparent Km values ranging from <2 μM for the phospho-middle t sequence to >2 mM for pTyr itself (Table 3).
Several phosphono peptides were tested for the ability to inhibit PTPase 1B activity and KI values determined by methods known to those skilled in the art.

[3] = Amino acid side chain pK titration; assay type: physicochemical; conditions: 0.2M solution titrated with 6N HCl
[4] = test system: SH2 domains of P13-kinase P85; assay: SH2 domain binding of GXVPML analog peptides (FIG. 2); conditions: peptide GXVPML, X varied
From the text: as §1

[5] = target: T1, association between pp60^c-grc /mT and PI 3-kinase; conditions: presence of vanadate; Auger et al., 1992; cited from earlier work
[6] = target: T4, association of PtdIns 3-kinase with mT/pp60^c-src complex (Rattus norvegicus, UniProt Q63787); assay: Peptide competition of PtdIns 3-kinase association with immunopurified mT/pp60^c-src; assay type: biochemical; conditions: Tran^35 S-labelled Rat-1 whole cell lysates, gel electrophoresis
T4 construct: from tissue; host or cells: rat liver (PtdIns 3-kinase); mT/pp60c-src complex immunopurified from baculovirus-infected Sf9 cells
T4 sequence (Q63787 whole entry, one chain of several): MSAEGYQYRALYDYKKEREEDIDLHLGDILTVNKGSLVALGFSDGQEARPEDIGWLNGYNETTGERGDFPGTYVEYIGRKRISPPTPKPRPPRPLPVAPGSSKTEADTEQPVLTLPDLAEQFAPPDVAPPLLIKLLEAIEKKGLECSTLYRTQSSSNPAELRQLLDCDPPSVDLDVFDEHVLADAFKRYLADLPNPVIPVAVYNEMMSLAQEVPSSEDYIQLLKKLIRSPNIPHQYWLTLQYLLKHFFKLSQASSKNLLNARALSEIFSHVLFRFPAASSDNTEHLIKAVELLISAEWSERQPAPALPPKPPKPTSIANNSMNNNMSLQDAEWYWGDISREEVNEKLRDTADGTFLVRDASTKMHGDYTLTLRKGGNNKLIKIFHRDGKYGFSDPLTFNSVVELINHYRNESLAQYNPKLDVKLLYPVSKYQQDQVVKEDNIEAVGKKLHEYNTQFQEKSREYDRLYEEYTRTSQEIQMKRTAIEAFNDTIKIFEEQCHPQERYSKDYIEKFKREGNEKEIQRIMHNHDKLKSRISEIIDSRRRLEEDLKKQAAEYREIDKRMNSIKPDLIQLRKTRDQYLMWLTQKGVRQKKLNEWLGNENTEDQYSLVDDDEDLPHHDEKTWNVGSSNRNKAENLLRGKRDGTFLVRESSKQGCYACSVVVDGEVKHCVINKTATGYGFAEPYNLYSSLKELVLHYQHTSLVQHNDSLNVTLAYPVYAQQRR
Procedure: (§2) In vitro association of phosphatidylinositol 3-kinase with immunopurified mT/pp60^c-src was assayed as follows. Washed mT/pp60^c-src immune complexes were incubated with purified PtdIns 3-kinase in 750 μl to 1 ml of standard lysis buffer (see above) at 4° C. on a platform rocker. The typical incubation was for 2-3 hours after which the complexes were collected by a brief centrifugation and washed twice with 1% […], twice with 0.5M LiCl in 0.1M Tris-HCl, and twice with TNE.
(§3) Mammalian whole cell lysates were prepared from confluent 10 cm cell culture plates. The monolayer was washed once with 4° C. PBS and lysed in 1.0 ml of standard lysis buffer. After 10 minutes of incubation on a rocker platform at 4° C., the cells were scrape harvested and lysates cleared by centrifugation at 12,000×g for 5 minutes at 4° C. Lysates were used immediately for association experiments with the immunopurified mT/pp60^c-src complex.
(§4) Phosphatidylinositol kinase assays and protein kinase assays were performed as follows. Phosphatidylinositol kinase assays were performed directly on the immune complex as described, Whitman et al., 1985, supra; Auger et al., 1989, supra. Sonicated phospholipids were added to the washed beads and the reaction was initiated with the addition of 50 μM ATP, 5-25 μCi [γ^32 P]ATP (3000/Ci/mmole), 5 mM MgCl2 in 20 mM HEPES (pH 7.5). Reactions were incubated for 5 minutes at room temperature. The 50 μl reactions were stopped by the addition of 80 μl of 1M HCl and 1 μl of 500 mM EDTA. The lipids were extracted with 160 μl of methanol:chloroform (1:1) and the organic layer was collected for analysis.
(§5) The major site of tyrosine phosphorylation on mT by pp60^c-src is tyrosine 315. […]
(§6) Proteins that were prevented from associating with the mT/pp60^c-src complex by the phosphorylated peptide were also determined. […]

[7] = test system: association of PtdIns 3-kinase with mT/pp60^c-src complex; assay: as above; assay type: biochemical; conditions: peptide pre-incubated with whole cell lysates
Procedure: as §2, §3, §4, §5, §6

SH2 domain of Src, sequence (P12931 151-248 limits assumed): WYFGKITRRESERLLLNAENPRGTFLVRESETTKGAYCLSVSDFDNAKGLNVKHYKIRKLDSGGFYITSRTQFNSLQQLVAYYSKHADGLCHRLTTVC

Molecule: CC[C@H](C)[C@H](NC(=O)[C@H](CCC(=O)O)NC(=O)[C@H](CCC(=O)O)NC(=O)[C@H](Cc1ccc(OP(=O)(O)O)cc1)NC(=O)[C@H](CCC(N)=O)NC(C)=O)C(=O)N1CCC[C@H]1C(N)=O [QXEEIP (pTyr)] (Ac-Q[pY]EEIP-NH2)
- IC50 (SH2 domain of Src): 5.7 ± 0.7 µM

Molecule: CSCC[C@H](NC(=O)[C@@H]1CCCN1C(=O)[C@H](CCSC)NC(=O)[C@H](Cc1ccc(OP(=O)(O)O)cc1)NC(=O)[C@H](CCC(=O)O)NC(=O)[C@H](CCC(=O)O)NC(=O)[C@@H](N)CCC(=O)O)C(=O)N[C@@H](CCC(=O)O)C(=O)N[C@@H](CC(=O)O)C(=O)N[C@@H](CC(C)C)C(=O)N[C@@H](Cc1ccc(O)cc1)C(=O)O [mT-pY315, EEEpYMPMEDLY] (H-EEE[pY]MPMEDLY-OH)
- inhibition of association between pp60^c-grc /mT and PI 3-kinase [1]: obliterated in the absence of vanadate
- estimated KD [2]: 0.01 µM

Molecule: N[C@@H](Cc1ccc(OP(=O)(O)O)cc1)C(=O)O [phosphotyrosine, reference compound]
- Km (Rat PTPase 1B; apparent Km as substrate): > 2000 µM
- Km (Rat PTPase 1B; apparent Km, phosphotyrosine and pY-peptides as substrates): > 2000 µM
- side chain pK3 [3]: 5.7

Molecule: GXVPML (Pmp): peptide GXVPML (SEQ ID NO: 45) with X = Pmp (G[Pmp]VPML)
- ED50 [4]: 1.0 ± 0.1 µM

Molecule: RENEYMPMAPQIH [unphosphorylated peptide, unphosphorylated version of the hamster mT peptide]
- activity on association between pp60^c-grc /mT and PI 3-kinase [5]: no detectable activity
- effect on association of labelled proteins (110 kDa doublet, 85 kDa) with mT/pp60^c-src [6]: did not affect this association
- effect on association of PtdIns 3-kinase with mT/pp60^c-src ([7]; listed as non-phosphorylated peptide): had no effect on the association
- effect on association of PtdIns 3-kinase with mT/pp60^c-src ([7]; listed as unphosphorylated version of the peptide): did not affect the association
